Experimental data reported in patent US20100249027A1, “CRF CONJUGATES WITH EXTENDED HALF-LIVES” (priority 2007, published 2010).
Read-outs that look alike come from different tables or passages of the source. Where no end group is shown, it is not given here.

Legend:
CRF R1 = target: T1, CRF R1 (Homo sapiens, UniProt P34998); details: cited from earlier work
T1 sequence (P34998 24-415): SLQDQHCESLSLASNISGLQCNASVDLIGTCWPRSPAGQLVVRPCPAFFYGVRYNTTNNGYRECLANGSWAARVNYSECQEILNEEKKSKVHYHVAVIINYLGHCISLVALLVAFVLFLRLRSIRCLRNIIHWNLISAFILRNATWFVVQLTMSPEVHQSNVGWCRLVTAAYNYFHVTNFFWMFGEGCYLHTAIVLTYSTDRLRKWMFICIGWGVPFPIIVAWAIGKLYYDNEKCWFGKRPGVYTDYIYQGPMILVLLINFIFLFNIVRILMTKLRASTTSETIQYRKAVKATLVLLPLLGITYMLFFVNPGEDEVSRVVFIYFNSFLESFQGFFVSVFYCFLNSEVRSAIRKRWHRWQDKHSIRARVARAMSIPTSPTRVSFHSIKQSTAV

[1] = plasma concentration time profile of hCRF after single intravenous and single subcutaneous injection (ELISA); format: in vivo, Sprague-Dawley Crl:CD rats; details: rat; for bioavailability: sc
Source text: The objective of this study was to determine the plasma concentration time profile of hCRF following a single intravenous and a single subcutaneous injection in three groups of Sprague-Dawley Crl:CD® :R rats. […] For the intravenous portion of the study, each of the three dose groups consisted of 72 males. Each of these groups was divided into three sets of replicates. Seven days after the intravenous portion of the study, 61 of the 72 animals from each of the three dose groups were randomly selected for the subcutaneous portion of the study. Each dose group was divided into three sets of replicates. Blood samples were taken at multiple time points via orbital sinus bleeding. Following intravenous dosing, blood samples were collected at time points out to 24 hours post dose. Following subcutaneous dosing, blood samples were collected at time points out to 48 hours post dose. Blood samples were collected from three rats in each dose group for each time point. […] All of the surviving animals were euthanized on the third day following subcutaneous dosing.
Plasma samples were prepared and hCRF concentrations in the plasma samples were determine by an ELISA method. […] Pharmacokinetic analyses were conducted for this dose group using the limited data obtained.

In the case of “III: CRF-related peptide Ucn III, also known as stresscopin (FTLSLDVPTNIMNLLFNIAKAKNLRAQAAANAHLMAQI; ends and bridges not checked; UniProt Q969E3 120-157, looked up)”, the “affinity for the CRF R1 subtype” value (CRF R1) is given as “little affinity”.

In the case of `CC[C@H](C)[C@H](NC(=O)[C@@H](NC(=O)[C@H](CCC(=O)O)NC(=O)[C@H](CCSC)NC(=O)[C@H](CC(C)C)NC(=O)[C@H](CCCCN)NC(=O)[C@H](CCCNC(=N)N)NC(=O)[C@H](CC(N)=O)NC(=O)[C@H](CO)NC(=O)[C@H](Cc1c[nH]cn1)NC(=O)[C@H](C)NC(=O)[C@H](CCC(N)=O)NC(=O)[C@H](CCC(N)=O)NC(=O)[C@H](C)NC(=O)[C@H](CC(C)C)NC(=O)[C@H](CCC(N)=O)NC(=O)[C@H](CCC(=O)O)NC(=O)[C@H](C)NC(=O)[C@H](CCCNC(=N)N)NC(=O)[C@H](C)NC(=O)[C@H](CCSC)NC(=O)[C@H](CCC(=O)O)NC(=O)[C@H](CC(C)C)NC(=O)[C@@H](NC(=O)[C@H](CCC(=O)O)NC(=O)[C@H](CCCNC(=N)N)NC(=O)[C@H](CC(C)C)NC(=O)[C@H](CC(C)C)NC(=O)[C@H](Cc1c[nH]cn1)NC(=O)[C@H](Cc1ccccc1)NC(=O)[C@@H](NC(=O)[C@H](CC(C)C)NC(=O)[C@H](CC(=O)O)NC(=O)[C@H](CC(C)C)NC(=O)[C@H](CO)NC(=O)[C@@H](NC(=O)[C@@H]1CCCN1C(=O)[C@@H]1CCCN1C(=O)[C@H](CCC(=O)O)NC(=O)[C@H](CCC(=O)O)NC(=O)[C@@H](N)CO)[C@@H](C)CC)[C@@H](C)O)C(C)C)[C@@H](C)CC)C(N)=O` [hCRF], the AUC ([1]; in vivo, 10 ug/kg, IV) is reported as 5.5 ng·h/mL, the Cmax ([1]; in vivo, 10 ug/kg, IV) is reported as 25.1 ± 3.8 ng/mL and the clearance ([1]; in vivo, 10 ug/kg, IV) is reported as 30 ± 3.06 mL/min/kg. The half-life ([1]; in vivo, 10 ug/kg, intravenous, 10 μg/kg, single exponential clearance, read-out: half-life) was 9.2 min, the AUC ([1]; in vivo, 100 ug/kg, IV) was 516 ng·h/mL and the Cmax ([1]; in vivo, 100 ug/kg, IV) was 1040 ± 105 ng/mL. It also gave a clearance ([1]; in vivo, 100 ug/kg, IV) of 3.23 ± 0.26 mL/min/kg, an AUC ([1]; in vivo, 100 ug/kg, SC) of 214 ng·h/mL and a Cmax ([1]; in vivo, 100 ug/kg, SC) of 108 ± 16.7 ng/mL. It also gave a half-life ([1]; in vivo, 100 ug/kg, intravenous, 100 μg/kg, single exponential clearance, read-out: half-life) of 20.7 min, an AUC ([1]; in vivo, 1000 ug/kg, SC) of 1790 ng·h/mL and a Cmax ([1]; in vivo, 1000 ug/kg, SC) of 618 ± 78.9 ng/mL. For the same compound, the bioavailability ([1]; in vivo, 100 ug/kg, subcutaneous) was 41%, the bioavailability ([1]; in vivo, subcutaneous, 1,000 μg/kg) was 37% and the AUC ([1]; in vivo, IV, 1,000 μg/kg) was 4880 ng·h/mL. It also gave a Cmax ([1]; in vivo, IV, 1,000 μg/kg) of 7600 ± 488 ng/mL, a clearance ([1]; in vivo, IV, 1,000 μg/kg) of 3.42 ± 0.18 mL/min/kg and a half-life ([1]; in vivo, intravenous, 1,000 μg/kg, single exponential clearance, read-out: half-life) of 26.7 min. For the same compound, the half-life ([1]; male, Sprague-Dawley Crl:CD, plasma, 100 ug/kg, SC, 100 μg/kg, read-out: t1/2β (terminal)) was 62.6 ± 5.9 min, the half-life ([1]; male, Sprague-Dawley Crl:CD, plasma, 1000 ug/kg, SC, 1000 μg/kg, read-out: t1/2β (terminal)) was 72.1 ± 14.8 min and the t1/2α ([1]; IV, 10 μg/kg) was 9.22 ± 1.05 min. For the same compound, the t1/2α ([1]; IV, 100 μg/kg) was 20.71 ± 0.92 min, the t1/2α ([1]; IV, 1,000 μg/kg) was 26.69 ± 0.62 min and the Bioavail. ([1]; SC, 100 μg/kg) was 41 ± 6%. It also gave a CL ([1]; SC, 100 μg/kg) of 7.78 ± 1.01 mL/min/kg, a t1/2α ([1]; SC, 100 μg/kg) of 6.96 ± 3.44 min and a Bioavail. ([1]; SC, 1000 μg/kg) of 37 ± 5%. For the same compound, the CL ([1]; SC, 1000 μg/kg) was 9.30 ± 1.05 mL/min/kg, the t1/2α ([1]; SC, 1000 μg/kg) was 21.56 ± 8.15 min and the “dose proportionality of pharmacokinetics” value ([1]; intravenously or subcutaneously, between 100 and 1,000 μg/kg) was “dose proportional”.

In the case of “Ucn II: CRF-related peptide urocortin II, 26% sequence homology to CRF (IVLSLDVPIGLLQILLEQARARAAREQATTNARILARVGHC; ends and bridges not checked; UniProt Q96RP3 72-112, looked up)”, the “affinity for the CRF R1 subtype” value (CRF R1) is given as “little affinity”.
